The source of these data is ChEMBL document CHEMBL5356964, “Design, synthesis and anti-rheumatoid arthritis activity of target TLR4 inhibitors” (Bioorg Med Chem, 2024).

pIC50: −log10 of the molar value. Activity calls are given as the source filed them. The calls are words filed in the database; no cut-off is given here.

Assay [1] is described as follows: Antiproliferative activity against rat Synovial cell assessed as inhibition of cell growth incubated for 48 hrs by CCK-8 assay. It counts as functional, cell-based. In general terms: Formazan colour is commonly taken as a measure of viable cells.
For assay [2], the system named is RAW264.7. In words: Antiproliferative activity against LPS-induced- mouse RAW264.7 cells assessed as inhibition of cell growth incubated for 24 hrs by CCK-8 assay. The settings on record: RAW264.7, 24 h. It counts as functional, cell-based.
Assay [3] has as its system RAW264.7. The assay is described as follows: Antiarthritic activity against LPS-induced mouse RAW264.7 cells assessed as reduction in TNF-alpha level at 1 uM incubated for 24 hrs (Rvb 653.3 +/- 70.1 pg/L). In kind it is functional.
Assay [4] concerns RAW264.7. The assay is described as follows: Antiarthritic activity against LPS-induced mouse RAW264.7 cells assessed as reduction in IL-1beta level at 1 uM incubated for 24 hrs (Rvb 665.1 +/- 82.1 pg/L). In kind it is functional.
Assay [5] has as its system RAW264.7. In words: Antiarthritic activity against LPS-induced mouse RAW264.7 cells assessed as reduction in IL-6 level at 1 uM incubated for 24 hrs (Rvb 231.1 +/- 24.2 pg/L). It counts as functional.
For assay [6], the target named is Toll-like receptor 4 (Homo sapiens, UniProt O00206). The assay is described as follows: Inhibition of TLR4 (unknown origin) using TMB as substrate incubated for 90 mins.
Assay [7] has as its system RAW264.7. The assay is described as follows: Antiproliferative activity against LPS-induced- mouse RAW264.7 cells assessed as cell survival at 1 uM pretreated with compound for 24 hrs followed by LPS induction and measured after 24 hrs. It counts as functional, cell-based. The conditions noted are these: time 48.0 hrs.
The subject of assay [8] is RAW264.7. The assay is described as follows: Antiproliferative activity against LPS-induced- mouse RAW264.7 cells assessed as decrease in number of cells at 1 uM pretreated with compound for 24 hrs followed by LPS induction and measured after 24 hrs. In kind it is functional, cell-based. The conditions noted are these: time 48.0 hrs.
The subject of assay [9] is RAW264.7. The assay is described as follows: Antiarthritic activity against LPS-induced mouse RAW264.7 cells assessed as reduction in TNF-alpha level at 1 uM pretreated with compound for 24 hrs followed by LPS induction and measured after 24 hrs. In kind it is functional, cell-based. The settings on record: time 48.0 hrs.
Assay [10] has as its system RAW264.7. The assay is described as follows: Antiarthritic activity against LPS-induced mouse RAW264.7 cells assessed as reduction in IL-1beta level at 1 uM pretreated with compound for 24 hrs followed by LPS induction and measured after 24 hrs. In kind it is functional, cell-based. The conditions noted are these: time 48.0 hrs.
Assay [11] has as its system RAW264.7. The assay is described as follows: Antiarthritic activity against LPS-induced mouse RAW264.7 cells assessed as reduction in IL-6 level at 1 uM pretreated with compound for 24 hrs followed by LPS induction and measured after 24 hrs. In kind it is functional, cell-based. The conditions noted are these: time 48.0 hrs.
The subject of assay [12] is RAW264.7. In words: Antiarthritic activity against LPS-induced mouse RAW264.7 cells assessed as downregulation of TLR4 expression at 1 uM preincubated with compound for 24 hrs followed by LPS-induction and measured after 24 hrs by immunofluorescence analysis. It counts as functional, cell-based. The conditions noted are these: time 48.0 hrs.
Assay [13] relates to RAW264.7. The assay is described as follows: Antiarthritic activity against LPS-induced mouse RAW264.7 cells assessed as downregulation of TNF-alpha expression at 1 uM preincubated with compound for 24 hrs followed by LPS-induction and measured after 24 hrs by immunofluorescence analysis. It counts as functional, cell-based. The settings on record: time 48.0 hrs.
In assay [14] the test system is RAW264.7. The assay is described as follows: Antiarthritic activity against LPS-induced mouse RAW264.7 cells assessed as downregulation of NF-kappaB expression at 1 uM preincubated with compound for 24 hrs followed by LPS-induction and measured after 24 hrs by immunofluorescence analysis. It counts as functional, cell-based. The conditions noted are these: time 48.0 hrs.

The subject of assay [15] is RAW264.7. In words: Antiarthritic activity against LPS-induced mouse RAW264.7 cells assessed as downregulation of JAK2 expression at 1 uM preincubated with compound for 24 hrs followed by LPS-induction and measured after 24 hrs by immunofluorescence analysis. It counts as functional, cell-based. The conditions noted are these: time 48.0 hrs.
For assay [16], the system named is RAW264.7. In words: Antiarthritic activity against LPS-induced mouse RAW264.7 cells assessed as downregulation of STAT3 expression at 1 uM preincubated with compound for 24 hrs followed by LPS-induction and measured after 24 hrs by immunofluorescence analysis. In kind it is functional, cell-based. The conditions noted are these: time 48.0 hrs.
Assay [17] concerns RAW264.7. The assay is described as follows: Antiarthritic activity against LPS-induced mouse RAW264.7 cells assessed as downregulation of TLR4 expression at 1 uM preincubated with compound for 24 hrs followed by LPS-induction and measured after 24 hrs by Western blot analysis. It counts as functional, cell-based. The settings on record: time 48.0 hrs. (In western blotting, separated proteins are transferred to a membrane and probed.)

In assay [18] the test system is RAW264.7. The assay is described as follows: Antiarthritic activity against LPS-induced mouse RAW264.7 cells assessed as downregulation of TNF-alpha expression at 1 uM preincubated with compound for 24 hrs followed by LPS-induction and measured after 24 hrs by Western blot analysis. It counts as functional, cell-based. The settings on record: time 48.0 hrs.
The test system of assay [19] is RAW264.7. In words: Antiarthritic activity against LPS-induced mouse RAW264.7 cells assessed as downregulation of NF-kappaB expression at 1 uM preincubated with compound for 24 hrs followed by LPS-induction and measured after 24 hrs by Western blot analysis. It counts as functional, cell-based. The settings on record: time 48.0 hrs.
Assay [20] has as its system RAW264.7. The assay is described as follows: Antiarthritic activity against LPS-induced mouse RAW264.7 cells assessed as downregulation of TLR4 mRNA expression at 1 uM preincubated with compound for 24 hrs followed by LPS-induction and measured after 24 hrs by RT-PCR analysis. In kind it is functional, cell-based. The settings on record: time 48.0 hrs.
The subject of assay [21] is RAW264.7. In words: Antiarthritic activity against LPS-induced mouse RAW264.7 cells assessed as downregulation of TNF-alpha mRNA expression at 1 uM preincubated with compound for 24 hrs followed by LPS-induction and measured after 24 hrs by RT-PCR analysis. In kind it is functional, cell-based. The settings on record: time 48.0 hrs.
Assay [22] has as its system RAW264.7. The assay is described as follows: Antiarthritic activity against LPS-induced mouse RAW264.7 cells assessed as downregulation of NF-kappaB mRNA expression at 1 uM preincubated with compound for 24 hrs followed by LPS-induction and measured after 24 hrs by RT-PCR analysis. In kind it is functional, cell-based. The conditions noted are these: time 48.0 hrs.
Assay [23] has as its system RAW264.7. The assay is described as follows: Antiarthritic activity against LPS-induced mouse RAW264.7 cells assessed as downregulation of JAK2 mRNA expression at 1 uM preincubated with compound for 24 hrs followed by LPS-induction and measured after 24 hrs by RT-PCR analysis. It counts as functional, cell-based. The settings on record: time 48.0 hrs.
Assay [24] concerns RAW264.7. The assay is described as follows: Antiarthritic activity against LPS-induced mouse RAW264.7 cells assessed as downregulation of STAT3 mRNA expression at 1 uM preincubated with compound for 24 hrs followed by LPS-induction and measured after 24 hrs by RT-PCR analysis. The settings on record: time 48.0 hrs. In kind it is functional, cell-based.

Toll-like receptor 4, sequence (O00206 whole entry): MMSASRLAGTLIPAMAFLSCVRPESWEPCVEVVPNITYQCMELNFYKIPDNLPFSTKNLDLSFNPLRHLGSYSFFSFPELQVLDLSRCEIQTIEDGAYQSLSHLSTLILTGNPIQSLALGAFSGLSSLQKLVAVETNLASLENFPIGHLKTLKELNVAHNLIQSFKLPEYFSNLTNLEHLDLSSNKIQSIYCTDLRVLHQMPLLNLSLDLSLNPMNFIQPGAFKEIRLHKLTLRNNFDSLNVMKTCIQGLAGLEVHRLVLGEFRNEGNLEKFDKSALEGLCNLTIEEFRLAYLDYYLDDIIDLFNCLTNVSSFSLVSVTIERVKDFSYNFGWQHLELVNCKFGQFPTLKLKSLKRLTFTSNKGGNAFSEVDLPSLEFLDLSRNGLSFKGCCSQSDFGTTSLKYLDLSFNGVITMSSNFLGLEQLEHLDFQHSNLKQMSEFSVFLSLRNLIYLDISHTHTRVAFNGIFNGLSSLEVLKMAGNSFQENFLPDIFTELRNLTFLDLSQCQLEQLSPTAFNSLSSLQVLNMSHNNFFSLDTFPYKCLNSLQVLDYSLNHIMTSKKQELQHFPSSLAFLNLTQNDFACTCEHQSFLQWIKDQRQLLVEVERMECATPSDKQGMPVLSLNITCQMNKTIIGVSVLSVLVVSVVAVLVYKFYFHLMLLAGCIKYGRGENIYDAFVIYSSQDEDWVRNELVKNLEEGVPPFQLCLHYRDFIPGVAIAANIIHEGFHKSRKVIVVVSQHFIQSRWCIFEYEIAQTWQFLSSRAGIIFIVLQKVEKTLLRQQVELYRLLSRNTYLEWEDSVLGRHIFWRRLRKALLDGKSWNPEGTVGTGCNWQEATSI

`CC(=O)CC(=O)C1CC(c2ccc(O)cc2)CCC1=O` (stereo unspecified): the pIC50 was 5.10 in [1] and 5.49 in assay [2].
On to `CC(=O)CC(=O)C1CC(NC(=O)OCc2ccccc2)CCC1=O` (stereo unspecified), for which the pIC50 in [1] was 5.37; in assay [2], 5.63.
For `COC(=O)C1CCC(=O)C(C(=O)CC(C)=O)C1` (stereo unspecified) the same measures were 4.78 and 5.13.
For `CC(=O)CC(=O)C1CC(=O)CCC1=O` (stereo unspecified) the same measures were 5.19 and 5.44.
Take `CC(=O)CC(=O)C1CC(C(=O)O)CCC1=O` (stereo unspecified): the negative-log IC50 (pIC50) in assay [1] is 5.27; in [2], 5.57.
Taken in the same sequence, the figures for `CCC(C)(C)C1CCC(=O)C(C(=O)CC(C)=O)C1` (stereo unspecified) were 4.99 and 5.41.
For the molecule `CC(=O)CC(=O)C1CC(C)CCC1=O` (stereo unspecified), the figures for the pIC50 in [1], in assay [2] and in assay [6] were 5.48, 5.77 and 5.94, respectively. Also, the Activity came to 399.1 pg/L in [3], 457.8 pg/L in [4] and 176.6 pg/L in assay [5].
Regarding `CC(=O)CC(=O)C1CC(c2ccccc2)CCC1=O` (stereo unspecified), the negative-log IC50 (pIC50) is 5.40 in assay [1] and 5.66 in assay [2].
For the molecule `CCCCC1CCC(=O)C(C(=O)CC(C)=O)C1` (stereo unspecified), the negative logarithm of the IC50 (pIC50) is 5.57 in [1], 5.81 in assay [2] and 5.73 in [6]. Also, the Activity in [3] is 401.6 pg/L; in assay [4], 481.6 pg/L; in assay [5], 187.4 pg/L.
`CC(=O)CC(=O)C1CC(C2CCC3(CC2)OCCO3)CCC1=O` (stereo unspecified): the pIC50 in assay [1] was 5.28; in assay [2] it was 5.60.
Turning to `CC(=O)CC(=O)C1CC(NC(C)=O)CCC1=O` (stereo unspecified), the negative logarithm of the IC50 (pIC50) in [1] is 5.58; in assay [2], 5.88; in assay [6], 5.92. For the same molecule, the Activity stood at 365.2 pg/L in assay [3], 407.2 pg/L in assay [4] and 158.9 pg/L in assay [5].
In the case of `CN(Cc1cnc2nc(N)nc(N)c2n1)c1ccc(C(=O)N[C@@H](CCC(=O)O)C(=O)O)cc1` [METHOTREXATE], the negative-log IC50 (pIC50) was 5.63 in [1] and 5.91 in assay [2]. The Activity in assay [3] came to 235.3 pg/L; in assay [4] it was 334.5 pg/L; in assay [5] it was 115.3 pg/L. Also, the outcome in [7], in [8], in [9], in [10], in assay [11] and in [12] was Active. Moreover, the result in [13], in assay [14], in [17], in [18], in assay [19] and in assay [20] was Active. Moreover, the result in assay [21] and in assay [22] was Active. Further, the result in assay [15], in assay [16], in assay [23] and in assay [24] was inactive.
On to `CC(=O)CC(=O)C1CC(C(C)(C)C)CCC1=O` (stereo unspecified), for which the values for the pIC50 in assay [1] and in assay [2] were 5.19 and 5.53, respectively.
In the case of `CC(=O)CC(=O)C1CC(N)CCC1=O` (stereo unspecified), the pIC50 in [1] was 5.67; in assay [2], 5.92; in assay [6], 5.99. Further, the Activity in assay [3] stood at 332.9 pg/L; in assay [4] it was 367.3 pg/L; in assay [5], 136.9 pg/L.
For `CC(=O)CC(=O)C1CC(Cl)CCC1=O` (stereo unspecified), the negative logarithm of the IC50 (pIC50) in assay [1] was 5.61; in assay [2] it was 5.88; in [6], 5.95. Moreover, the Activity turned out to be 350.2 pg/L in assay [3], 385.1 pg/L in assay [4] and 133.5 pg/L in assay [5].
`CC(=O)CC(=O)C1CC(N2C(=O)c3ccccc3C2=O)CCC1=O` (stereo unspecified): the pIC50 in assay [1] was 5.22; in [2], 5.58.
`CCC1CCC(=O)C(C(=O)CC(C)=O)C1` (stereo unspecified): the values for the pIC50 in assay [1] and in [2] were 5.27 and 5.57, respectively.
With `CCCC1CCC(C2CCC(=O)C(C(=O)CC(C)=O)C2)CC1` (stereo unspecified), the pIC50 in assay [1] was 5.45; in assay [2], 5.77; in assay [6] it was 5.75. For the same molecule, the Activity in assay [3] was 478.96 pg/L; in assay [4], 545.9 pg/L; in assay [5] it was 180.7 pg/L.
With `CCCCCC1CCC(=O)C(C(=O)CC(C)=O)C1` (stereo unspecified), the negative logarithm of the IC50 (pIC50) was 5.29 in assay [1] and 5.61 in assay [2].
For `CC(=O)CC(=O)C1CC(C2=CCCCC2)CCC1=O` (stereo unspecified) the same measures were 5.27 and 5.55.
For `CC(=O)CC(=O)C1CC(NC(=O)OC(C)(C)C)CCC1=O` (stereo unspecified) the same measures were 5.29 and 5.57.
Taken in the same sequence, the figures for `CCOC(=O)C1CCC(=O)C(C(=O)CC(C)=O)C1` (stereo unspecified) were 5.26 and 5.58.
Take `CC(=O)CC(=O)C1CCCCC1=O` (stereo unspecified): the pIC50 is 5.35 in [1] and 5.51 in assay [2].

Broadly, the pIC50 is the IC50 on a negative log10 scale, so that one unit is a factor of ten.
